What is called viability is a read-out of living cells in per cent, often relative to untreated cells.

Read-outs that look alike come from different tables or passages of the source. Bounds are passed on as bounds.

This is an account of results in paper PMC9412534, “Diindolylmethane Derivatives: New Selective Blockers for T-Type Calcium Channels” (Membranes, 2022).

The subject of one experiment is CaV1. As to the kind of experiment: HVA L-type calcium channel FLIPR assay in SH-SY5Y cells. The experiment is classed as cell-based, human. Conditions: 1 µM CVID present, n = 3, read-out: IC50 CaV1 (HVA CaVs). Here is the method: (§1) The human embryonic kidney 293 (HEK 293) cell lines (from Emmanuel Bourinet, Montpellier, France) stably expressing CaV3.2 or CaV3.3 were cultured under 5% carbon dioxide at 37 °C in Dulbecco’s Modified Eagle Medium (DMEM) Glutamax (Gibco, Life Technologies, Carlsbad, CA, USA) supplemented with 10% (v/v) fetal bovine serum (FBS), 100 U/mL penicillin, 100 μg/mL streptomycin (Gibco, Life Technologies, Carlsbad, CA, USA), and 750 μg/mL geneticin (G418) (Gibco, Life Technologies). The Chinese Hamster Ovary (CHO) cell lines (Emmanuel Bourinet, Montpellier, France) expressing CaV3.1 were cultured under 5% carbon dioxide at 37 °C in Alpha Minimum Essential Media (MEM) Glutamax (Gibco, Life Technologies), supplemented with 10% (v/v) fetal bovine serum (FBS) and 300 μg/mL geneticin (G418) (Gibco, Life Technologies). The human neuroblastoma SH-SY5Y cells (Victor Diaz, Goettingen, Germany) were cultured under 5% carbon dioxide at 37 °C in RPMI 1640 antibiotic-free medium (Invitrogen, Carlsbad, CA, USA), supplemented with 15% FBS and 2 mM GlutaMAX™ (Invitrogen). D-PBS (Gibco, Life Technologies) was used to wash the cells, and 0.25% Trypsin-EDTA (Gibco, Life Technologies) was used to detach cells from the flask surface. They were split in a ratio of 1:5 (ideally 1000 cells/cm^2) when they reached 70–80% confluence (every 2–3 days). Transiently transfected CaV3.1 HEK293 T cells were used in FLIPR Assays. HEK 293 T cells were cultured under 5% carbon dioxide at 37 °C in DMEM supplemented with 10% (v/v) FBS. D-PBS was used to wash the cells, and 0.25% Trypsin-EDTA was used to detach cells from the flask surface. The cells were split and seeded at 6 million cells per T175 flask, to reach 70–80% confluence after 24 h. The next day, 12 μg DNA of human CaV3.1 was incubated in 900 μL serum-free DMEM with 36 μL FuGENE HD transfection reagent (Promega Corporation, Madison, WI, USA) (1:3 DNA/Fugene ratio) for 20 min, and then the mixture was added into the cell flask slowly, drop by drop. After the transfection, the cells were cultured under 5% carbon dioxide at 37 °C for 24 h and then moved to a 28 °C incubator.
SH-SY5Y cells were seeded into 384-well black wall clear bottom plates at a density of 15,000 cells per well, resulting in 90–95% confluence after 24 h. The media were then removed from the wells and replaced with 20 μL of 10% calcium 4 dye (Molecular Devices) in physiological salt solution (PSS) (containing 5.9 mM KCl, 1.4 mM MgCl2, 10 mM HEPES, 1.2 mM NaH2 PO4, 5 mM NaHCO3, 140 mM NaCl, 11.5 mM glucose, and 1.8 mM CaCl2, pH 7.4) with 0.1% BSA. As reported, for N-type calcium channel FLIPR assays the cells were pre-incubated with 10 µM nifedipine added in the dye to ensure full inhibition of L-type calcium responses. For L-type calcium channel FLIPR assays, the cells were pre-incubated with 1 µM CVID added in the dye to ensure full inhibition of N-type calcium responses. Positive control on the first reagent plate contained 15 μL of PSS (0.1% BSA), whereas PSS (0.1% BSA) containing 1 µM CVID and 10 µM nifedipine (final concentration) was used as a negative control. The fluorescence readings were recorded and converted as described previously, and agonist containing 90 mM KCl + 5 mM CaCl2 was used in the second addition.

Another experiment concerns HT-29 cells. Nature of the experiment: Cell viability MTT assay, HT-29. Format: cell-based, human. Conditions: for viability at 50 µM: HT-29, 50 µM, n = 4; for IC50: n = 3; for preferential anti-proliferative activity on HT-29: versus MCF-7, T-47D, A549. Here is the method:
Human breast cancer cell line MCF-7 and T-47D, lung cancer cell line A549, and colon cancer cell line HT-29 were cultured under 5% carbon dioxide at 37 °C in DMEM Glutamax (Gibco, Life Technologies) supplemented with 10% (v/v) FBS. They were split in a ratio of 1:3–1:6 (ideally 2–4 × 10,000 cells/cm^2) when they reached 70–80% confluence using 0.25% Trypsin-EDTA. For cell viability MTT assay, cells were seeded into 96-well clear bottom culture plates (Corning, Lowell, MA, USA) at a density of 5 × 10^3 cells/well and settled at 37 °C for 24 h.
Seeded cells were treated with various concentrations of compounds for desired time period (24, 48 and 72 h). After the treatments, the media were removed from each well, and replaced with 25 μL of serum-free media and 25 μL of MTT Reagent (cat. no., ab211091; Abcam, Cambridge, MA, USA). The plate was then incubated at 37 °C for 3 h, and 75 μL of MTT Solvent (cat. no., ab211091; Abcam) was added into each well after incubation. The absorbance was evaluated at 590 nm. Cell-wells treated with 0.1% DMSO were used as positive control and no cell-wells were used as background control.
In general terms: Tetrazolium assays rely on reduction of a dye to a coloured formazan, in cell work by metabolically active cells.

In another experiment the target is CaV3.3 (Homo sapiens, UniProt Q9P0X4). As to the kind of experiment: T-type calcium channel window current FLIPR assay, CaV3.3. The experiment is classed as cell-based. Here is the method: as §1
(§2) HEK 293 cells stably expressing CaV3.2 or CaV3.3 were seeded into 384-well black wall clear bottom plates (Corning) at a density of 30,000 cells per well. Transiently transfected CaV3.1HEK293 T cells were seeded into 384-well black wall clear bottom plates at a density of 60,000 cells per well. Once the cells reached 90–95% confluence after 24 h, the media were removed from the wells and replaced with 20 μL of 10% calcium 4 dye (Molecular Devices, Sunnyvale, CA, USA) in HBSS-HEPES (containing 5 mM KCl, 10 mM HEPES, 140 mM NaCl, 10 mM glucose, and 0.5 mM CaCl2, pH 7.4) with 0.1% bovine serum albumin (BSA). The cells were incubated for 30 min at 37 °C in the presence of 5% carbon dioxide. Each well on the reagent plates for the first addition contained 15 μL different concentrations of compounds dissolved in HBSS-HEPES containing 0.1% BSA and <0.5% DMSO and was incubated for 20 min after loaded. Positive and negative controls contained 15 μL of HBSS-HEPES (0.1% BSA) alone. The plates were placed in the FLIPR^TETRA (Molecular Devices, Sunnyvale, CA, USA) programmed to measure maximum fluorescence intensity following a second addition of the agonist 5 mM CaCl2. The fluorescence readings were recorded and converted as described previously, and HBSS-HEPES (0.1% BSA) was used in the second addition as a negative control.

Another experiment deals with T1, human CaV3.1 (Homo sapiens, UniProt O43497).
T1 construct: expressed in transfected cells; host or cells: HEK 293 T cells, transient transfection (FuGENE HD)
As to the kind of experiment: T-type calcium channel window current FLIPR assay, CaV3.1. The experiment is classed as cell-based. Conditions: n = 3, read-out: IC50 CaV3.1 (LVA CaVs). As to the method: as §1, §2

The mark [1] stands for this setting: Homo sapiens, HT-29, 72 h, 72 h treatment.
Where [2] appears, read: FLIPR window current, n = 3, read-out: IC50 CaV3.3 (LVA CaVs).
The mark [3] stands for this setting: FLIPR, one separate experiment in quadruplicate (n = 4), read-out: IC50 of representative concentration-response curve, CaV3.3 window current.

T1 sequence (O43497 whole entry): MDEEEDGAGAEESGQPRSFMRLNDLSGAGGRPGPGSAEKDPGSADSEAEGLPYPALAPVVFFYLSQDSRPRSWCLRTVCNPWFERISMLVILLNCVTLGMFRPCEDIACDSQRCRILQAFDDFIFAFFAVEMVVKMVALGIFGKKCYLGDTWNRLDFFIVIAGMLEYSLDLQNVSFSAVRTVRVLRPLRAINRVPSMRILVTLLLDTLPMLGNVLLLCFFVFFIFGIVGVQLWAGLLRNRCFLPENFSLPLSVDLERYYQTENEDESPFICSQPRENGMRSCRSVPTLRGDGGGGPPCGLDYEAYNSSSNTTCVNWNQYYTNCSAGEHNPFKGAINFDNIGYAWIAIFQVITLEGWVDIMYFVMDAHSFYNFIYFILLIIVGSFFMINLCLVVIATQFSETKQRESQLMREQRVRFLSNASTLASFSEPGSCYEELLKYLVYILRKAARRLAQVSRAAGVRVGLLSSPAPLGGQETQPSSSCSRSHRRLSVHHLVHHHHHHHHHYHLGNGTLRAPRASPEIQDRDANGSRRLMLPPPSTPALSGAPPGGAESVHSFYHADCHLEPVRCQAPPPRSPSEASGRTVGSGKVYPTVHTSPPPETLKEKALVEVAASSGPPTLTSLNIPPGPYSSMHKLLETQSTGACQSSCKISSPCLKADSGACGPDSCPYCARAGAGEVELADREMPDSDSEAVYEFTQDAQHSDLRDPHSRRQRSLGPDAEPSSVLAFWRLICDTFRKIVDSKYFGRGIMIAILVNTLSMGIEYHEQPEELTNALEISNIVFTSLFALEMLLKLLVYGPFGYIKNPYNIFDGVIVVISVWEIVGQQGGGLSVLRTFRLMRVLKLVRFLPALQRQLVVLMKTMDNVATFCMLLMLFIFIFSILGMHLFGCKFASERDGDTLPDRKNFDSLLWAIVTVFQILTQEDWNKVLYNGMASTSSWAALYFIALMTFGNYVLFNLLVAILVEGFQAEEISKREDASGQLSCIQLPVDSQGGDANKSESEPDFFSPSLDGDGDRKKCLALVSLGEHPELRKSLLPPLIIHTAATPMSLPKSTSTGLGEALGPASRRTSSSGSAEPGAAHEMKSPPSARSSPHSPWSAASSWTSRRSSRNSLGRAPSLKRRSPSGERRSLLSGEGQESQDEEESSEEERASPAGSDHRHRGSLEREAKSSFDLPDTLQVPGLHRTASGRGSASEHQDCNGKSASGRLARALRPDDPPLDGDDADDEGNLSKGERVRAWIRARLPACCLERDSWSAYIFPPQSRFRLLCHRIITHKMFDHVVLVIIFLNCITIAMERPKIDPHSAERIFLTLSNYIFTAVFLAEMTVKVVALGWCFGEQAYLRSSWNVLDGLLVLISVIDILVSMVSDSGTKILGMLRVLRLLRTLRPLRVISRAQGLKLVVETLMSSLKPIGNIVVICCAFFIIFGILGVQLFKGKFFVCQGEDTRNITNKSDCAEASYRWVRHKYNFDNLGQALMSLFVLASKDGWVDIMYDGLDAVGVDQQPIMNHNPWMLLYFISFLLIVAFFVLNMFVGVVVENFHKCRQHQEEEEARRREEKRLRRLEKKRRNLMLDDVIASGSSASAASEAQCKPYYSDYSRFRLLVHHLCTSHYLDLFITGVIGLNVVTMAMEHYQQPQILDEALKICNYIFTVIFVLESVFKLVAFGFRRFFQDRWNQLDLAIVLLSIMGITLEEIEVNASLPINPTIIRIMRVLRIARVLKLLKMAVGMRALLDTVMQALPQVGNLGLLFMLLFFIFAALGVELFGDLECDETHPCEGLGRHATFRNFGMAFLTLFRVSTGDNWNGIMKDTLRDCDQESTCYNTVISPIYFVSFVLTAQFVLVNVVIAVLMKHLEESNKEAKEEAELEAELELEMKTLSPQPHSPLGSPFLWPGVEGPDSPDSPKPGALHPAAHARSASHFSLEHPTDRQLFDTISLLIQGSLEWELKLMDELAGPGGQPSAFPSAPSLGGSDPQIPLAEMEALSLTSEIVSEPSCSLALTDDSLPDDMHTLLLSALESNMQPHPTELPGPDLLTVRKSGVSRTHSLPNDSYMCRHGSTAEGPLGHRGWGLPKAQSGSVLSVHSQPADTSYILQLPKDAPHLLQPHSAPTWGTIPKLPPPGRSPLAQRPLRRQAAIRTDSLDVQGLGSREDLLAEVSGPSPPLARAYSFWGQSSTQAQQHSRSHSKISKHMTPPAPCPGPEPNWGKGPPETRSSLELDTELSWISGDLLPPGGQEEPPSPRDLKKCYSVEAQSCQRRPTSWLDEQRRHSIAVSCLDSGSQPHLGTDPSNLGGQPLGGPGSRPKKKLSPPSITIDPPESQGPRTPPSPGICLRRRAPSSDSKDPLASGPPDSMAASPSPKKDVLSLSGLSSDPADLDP
CaV3.3, sequence (Q9P0X4 whole entry): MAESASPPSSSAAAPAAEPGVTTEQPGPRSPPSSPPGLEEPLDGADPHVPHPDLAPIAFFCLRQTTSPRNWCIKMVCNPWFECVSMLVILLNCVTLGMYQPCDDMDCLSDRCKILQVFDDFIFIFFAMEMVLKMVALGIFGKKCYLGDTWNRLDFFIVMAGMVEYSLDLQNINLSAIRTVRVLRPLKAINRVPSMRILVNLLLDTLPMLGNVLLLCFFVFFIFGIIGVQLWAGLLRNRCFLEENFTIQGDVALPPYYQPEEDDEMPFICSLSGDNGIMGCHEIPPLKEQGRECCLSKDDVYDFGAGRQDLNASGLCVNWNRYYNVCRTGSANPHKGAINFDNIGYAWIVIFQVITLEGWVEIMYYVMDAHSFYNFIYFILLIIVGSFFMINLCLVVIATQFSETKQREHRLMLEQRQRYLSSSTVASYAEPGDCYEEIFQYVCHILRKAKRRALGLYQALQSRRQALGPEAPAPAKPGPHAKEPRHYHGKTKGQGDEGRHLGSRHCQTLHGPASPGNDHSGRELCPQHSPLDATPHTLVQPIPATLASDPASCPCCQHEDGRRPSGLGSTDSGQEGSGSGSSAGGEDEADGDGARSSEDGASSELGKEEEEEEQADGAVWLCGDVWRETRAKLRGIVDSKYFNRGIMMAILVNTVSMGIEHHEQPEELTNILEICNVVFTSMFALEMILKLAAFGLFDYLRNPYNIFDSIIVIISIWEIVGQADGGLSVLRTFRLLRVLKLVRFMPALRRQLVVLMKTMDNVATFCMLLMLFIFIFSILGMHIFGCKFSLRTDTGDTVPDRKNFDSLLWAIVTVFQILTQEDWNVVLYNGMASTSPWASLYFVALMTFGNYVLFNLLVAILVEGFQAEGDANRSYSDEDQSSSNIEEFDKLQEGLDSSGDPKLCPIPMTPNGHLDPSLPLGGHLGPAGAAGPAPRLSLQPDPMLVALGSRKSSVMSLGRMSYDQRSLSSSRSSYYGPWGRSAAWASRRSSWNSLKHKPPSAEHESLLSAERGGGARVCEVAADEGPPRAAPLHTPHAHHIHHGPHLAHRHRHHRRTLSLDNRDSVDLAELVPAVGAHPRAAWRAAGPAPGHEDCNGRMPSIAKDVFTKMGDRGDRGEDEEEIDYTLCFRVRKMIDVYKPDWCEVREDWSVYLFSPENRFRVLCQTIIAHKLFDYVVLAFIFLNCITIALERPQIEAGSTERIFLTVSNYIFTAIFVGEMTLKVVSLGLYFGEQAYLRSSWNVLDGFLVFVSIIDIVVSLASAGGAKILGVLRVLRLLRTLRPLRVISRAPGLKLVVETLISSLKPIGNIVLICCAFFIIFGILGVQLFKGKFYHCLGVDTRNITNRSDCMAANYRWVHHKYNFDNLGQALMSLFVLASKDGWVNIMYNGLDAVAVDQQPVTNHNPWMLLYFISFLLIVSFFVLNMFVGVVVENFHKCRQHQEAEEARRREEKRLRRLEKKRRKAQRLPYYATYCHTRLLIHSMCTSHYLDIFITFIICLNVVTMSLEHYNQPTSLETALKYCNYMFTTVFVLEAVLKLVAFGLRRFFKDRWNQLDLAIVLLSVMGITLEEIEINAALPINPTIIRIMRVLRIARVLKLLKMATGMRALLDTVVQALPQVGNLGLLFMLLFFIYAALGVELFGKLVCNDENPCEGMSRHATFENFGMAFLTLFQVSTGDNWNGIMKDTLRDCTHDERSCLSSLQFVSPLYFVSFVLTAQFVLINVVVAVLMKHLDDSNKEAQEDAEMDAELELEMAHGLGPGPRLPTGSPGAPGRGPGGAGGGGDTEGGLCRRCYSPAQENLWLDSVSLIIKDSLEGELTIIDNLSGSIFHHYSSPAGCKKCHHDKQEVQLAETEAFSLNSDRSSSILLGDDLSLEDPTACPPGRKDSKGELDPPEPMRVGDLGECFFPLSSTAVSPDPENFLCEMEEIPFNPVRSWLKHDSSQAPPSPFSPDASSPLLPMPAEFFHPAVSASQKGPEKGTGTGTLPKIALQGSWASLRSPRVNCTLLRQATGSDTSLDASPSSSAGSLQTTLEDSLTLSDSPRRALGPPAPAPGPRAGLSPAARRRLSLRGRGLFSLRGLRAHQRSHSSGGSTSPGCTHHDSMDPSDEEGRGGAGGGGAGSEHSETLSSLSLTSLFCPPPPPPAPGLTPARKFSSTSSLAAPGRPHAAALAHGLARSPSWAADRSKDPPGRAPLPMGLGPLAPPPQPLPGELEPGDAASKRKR

For the molecule `c1ccc2c(Cc3c[nH]c4ccccc34)c[nH]c2c1` [DIM, 3,3′-diindolylmethane, reference compound], the IC50 in the experiment on CaV1 is 68.6 ± 6.65 µM; in the experiment with HT-29 cells (setting [1]), 33 µM; on CaV3.3 (setting [2]), 2.09 ± 0.43 µM; at CaV3.3 (setting [3]), 2.77 µM; at human CaV3.1, over 200 µM. The viability at 50 µM in the experiment with HT-29 cells (Homo sapiens, 72 h treatment) amounted to 25.3 ± 2.44%. The “CaV3.3 window current potency better than at CaV3.1 and CaV3.2” value on CaV3.3 (FLIPR) is ~ 25 fold. Further, on CaV3.3 (FLIPR), the “CaV3.3 window current potency better than potency at HVA CaVs” value is over 27 fold.
As for `O=C(c1c[nH]c2ccccc12)c1c[nH]c2ccccc12` [DIM-one, 3,3′-diindolylmethanone], the IC50 with CaV1 came out at 61 ± 3.99 µM; with HT-29 cells (setting [1]), 20 µM; at CaV3.3 (setting [2]) it was 9.07 ± 0.69 µM; on CaV3.3 (setting [3]), 8.18 µM; on human CaV3.1, 158 ± 11.1 µM. Moreover, in the experiment with HT-29 cells (72 h treatment), the “better antiproliferative effect on HT-29 cell viability than on the other three cancer cell lines” value is reported as at least 2 fold. The viability at 50 µM in the experiment on HT-29 cells (Homo sapiens, 72 h treatment) was found to be 5.95 ± 0.19%. Further, the “preferential anti-proliferative activity on HT-29” value with HT-29 cells is given as “preferential anti-proliferative activity”. In addition, the “reduced potency for CaV3.3 window current compared to DIM” value at CaV3.3 (FLIPR) worked out at 4.3 fold.
Consider `O=C(c1c[nH]c2cc(Br)ccc12)c1c[nH]c2cc(Br)ccc12` [IV], for which the IC50 was determined as 38.8 ± 5.01 µM in the experiment with CaV1; 1.2 µM in the experiment with HT-29 cells (72 h treatment); 5.9 µM in the experiment on HT-29 cells (Homo sapiens, HT-29, 24 h, 24 h treatment); 1.6 µM in the experiment with HT-29 cells (Homo sapiens, HT-29, 48 h, 48 h treatment); 1 µM in the experiment with HT-29 cells (setting [1]); 62.5 ± 4.1 µM on CaV3.3 (setting [2]). For the same molecule, the IC50 at human CaV3.1 came to 53.5 ± 2 µM. Also, the “better antiproliferative effect on HT-29 cell viability than on the other three cancer cell lines” value in the experiment with HT-29 cells (72 h treatment) is reported as ~ 3 fold. Besides, the “improved potency on HT-29 cell viability compared with the other three compounds” value in the experiment on HT-29 cells (72 h treatment) is over 10 fold. Besides, the viability at 50 µM in the experiment on HT-29 cells (Homo sapiens, 72 h treatment) came to 0.85 ± 0.21%. Further, the “preferential anti-proliferative activity on HT-29” value with HT-29 cells is reported as “preferential anti-proliferative activity”.
Regarding `O=C(c1cn(Cc2ccccc2)c2ccccc12)c1cn(Cc2ccccc2)c2ccccc12` [IX, bis(1-benzyl-1H-indol-3-yl)methanone], the IC50 in the experiment with CaV1 was determined as 48 ± 2.79 µM; at CaV3.3 (IC50 CaV3.3 (LVA CaVs), FLIPR window current, n = 3), 6.68 ± 0.79 µM; at CaV3.3 (IC50 of representative concentration-response curve, CaV3.3 window current, FLIPR, one separate experiment in quadruplicate (n = 4)), 5.27 µM; at human CaV3.1, 35.1 ± 1.05 µM. On CaV3.3 (FLIPR), the “less active at HVA CaVs than at CaV3.2 and CaV3.3” value is recorded as over 7 fold.
